Reference: patent US6642392B1 (priority 1997, dated 2003)
Like-named read-outs stand apart in the source and are kept apart here.

How the values were obtained:
Assay type in all cases: in vivo
Conditions in all cases: rating relative to controls
Puccinia recondita = assay: Test B: wheat leaf rust, preventive spray on wheat seedlings
Method in brief: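 Wheat seedlings were sprayed to run-off with compound (3% acetone, 250 ppm Trem 014), then inoculated with P. recondita spores the next day. They were held 24 h saturated at 20 °C, then 6 days at 20 °C. Ratings are 0–100% disease control versus controls.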

Botrytis cinerea = assay: Test E: gray mold, preventive spray on cucumber seedlings
Method in brief: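 Compounds in 3% acetone were suspended with 250 ppm Trem 014 surfactant and sprayed to run-off on cucumber seedlings. B. cinerea spores were inoculated next day, then 48 h saturated humidity at 20° C and 5 days at 20° C. Disease control rated 0–100% versus controls.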

[1] = tested on: Eiysiphe graminis f. sp. tritici; assay: Test A: wheat powdery mildew, preventive spray on wheat seedlings
Method in brief: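 Compounds (3% acetone, 250 ppm Trem 014) sprayed to run-off on wheat seedlings, inoculated next day with spore dust. Incubated 7 days at 20° C before disease rating, 0–100% control relative to untreated controls.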

Phytophthora infestans = tested on: Phytophthora infestans
Pyricularia oryzae = tested on: Pyricularia oryzae
[2] = wheat seedlings sprayed to run-off, inoculated the following day, unmarked compounds (standard test rate)
[3] = cucumber seedlings sprayed to run-off, inoculated the following day, unmarked compounds (standard test rate)
[4] = tomato seedlings sprayed to run-off, inoculated the following day, unmarked compounds (standard test rate)
[5] = rice seedlings sprayed to run-off, inoculated the following day, unmarked compounds (standard test rate)
[6] = tested at 40 ppm, wheat seedlings

SMILES	Test B disease control rating (100 = 100% disease control, 0 = no disease control) (Puccinia recondita; [2])	Test E disease control rating (100 = 100% disease control, 0 = no disease control) (Botrytis cinerea; [3])	Test A disease control rating (100 = 100% disease control, 0 = no disease control) [1, 2]	Test D disease control rating (100 = 100% disease control, 0 = no disease control) (Phytophthora infestans; [4])	Test C disease control rating (100 = 100% disease control, 0 = no disease control) (Pyricularia oryzae; [5])	Test B disease control rating (100 = 100% disease control, 0 = no disease control) (Puccinia recondita; [6])	Test E disease control rating (100 = 100% disease control, 0 = no disease control) (Botrytis cinerea; tested at 40 ppm, cucumber seedlings)	Test A disease control rating (100 = 100% disease control, 0 = no disease control) [1, 6]	Test D disease control rating (100 = 100% disease control, 0 = no disease control) (Phytophthora infestans; tested at 40 ppm, tomato seedlings)	Test C disease control rating (100 = 100% disease control, 0 = no disease control) (Pyricularia oryzae; tested at 40 ppm, rice seedlings)
CCC(=CCNC(=O)C1(CC)C(C)C1(Cl)Cl)c1ccccc1 (stereo not drawn) [compound 269]	0%	0%	98%	74%	94%	–	–	–	–	–
CCC1(C(=O)NCC(C)=Cc2cc(Cl)ccc2Cl)C(C)C1(Cl)Cl (stereo not drawn) [compound 270]	0%	0%	77%	96%	91%	–	–	–	–	–
CCC1(C(=O)NCC=C(C)c2cc(Cl)ccc2Cl)C(C)C1(Cl)Cl (stereo not drawn) [compound 271]	0%	0%	77%	96%	94%	–	–	–	–	–
CCC(C#N)C(=O)N[C@H](C)[C@H](Oc1cc(F)ccc1F)c1ccccc1 (stereo partly drawn) [compound 293]	0%	0%	0%	23%	100%	–	–	–	–	–
CCC(C#N)C(=O)N[C@H](C)[C@H](Oc1ccccc1C#N)c1ccccc1 (stereo partly drawn) [compound 304]	0%	0%	0%	0%	97%	–	–	–	–	–
CCC1(C(=O)NC(C)COc2cc(F)cc(F)c2Cl)C(C)C1(Cl)Cl (stereo not drawn) [compound 318]	–	–	–	–	–	0%	0%	90%	0%	53%
